# Structures can show the parent of a compound that is named as a salt.
# Tests used:
# [1] = target: T1, EGFR (Homo sapiens, UniProt P00533); assay: EGFR substrate phosphorylation assay (HTRF); assay type: biochemical
# T1 construct: made in house; host or cells: baculovirus expression system
# In short: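 Baculovirus-expressed EGFR (0.8 nM) or ErbB2 (10 nM) in enzyme mix, preincubated 1 h at 20 °C with compound (0.00027–47.6 μM final), then 90 min at 20 °C with substrate mix of 20 μM ATP, 0.8 uM biotinylated Peptide C, MnCl2, MOPS pH 7.5. Phosphotyrosine by HTRF; pIC50 reported.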
# [2] = system: HN5 tumor cells; assay: Cell growth inhibition assay (CellTiter-Glo), HN5; assay type: cell-based, Human; settings: Homo sapiens, 72 h; 3 days incubation
# In short: (§1)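 Cells seeded at 500/well (HN5 and HT-29 in high-glucose DMEM/10% FBS; A375P F11s in RPMI/10% FBS with pyruvate; SK-MEL-3 in McCoy's 5A/15% FBS), then exposed next day to 1:3 serial compound dilutions (0.2% DMSO) for 3 days at 37° C. CellTiter-Glo luminescence measured ATP; IC50 derived by 4-parameter fit.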
# [3] = system: BT474 tumor cells; assay: Cell growth inhibition assay (CellTiter-Glo), BT474; assay type: cell-based, Human; settings: Homo sapiens, BT-474, 72 h, 3 days incubation
# [4] = system: SK-MEL-3 tumor cells; assay: Cell growth inhibition assay (CellTiter-Glo), SK-MEL-3; assay type: cell-based, Human; settings: Homo sapiens, SK-MEL3
# In short: as §1
# T1 sequence (P00533 25-1210): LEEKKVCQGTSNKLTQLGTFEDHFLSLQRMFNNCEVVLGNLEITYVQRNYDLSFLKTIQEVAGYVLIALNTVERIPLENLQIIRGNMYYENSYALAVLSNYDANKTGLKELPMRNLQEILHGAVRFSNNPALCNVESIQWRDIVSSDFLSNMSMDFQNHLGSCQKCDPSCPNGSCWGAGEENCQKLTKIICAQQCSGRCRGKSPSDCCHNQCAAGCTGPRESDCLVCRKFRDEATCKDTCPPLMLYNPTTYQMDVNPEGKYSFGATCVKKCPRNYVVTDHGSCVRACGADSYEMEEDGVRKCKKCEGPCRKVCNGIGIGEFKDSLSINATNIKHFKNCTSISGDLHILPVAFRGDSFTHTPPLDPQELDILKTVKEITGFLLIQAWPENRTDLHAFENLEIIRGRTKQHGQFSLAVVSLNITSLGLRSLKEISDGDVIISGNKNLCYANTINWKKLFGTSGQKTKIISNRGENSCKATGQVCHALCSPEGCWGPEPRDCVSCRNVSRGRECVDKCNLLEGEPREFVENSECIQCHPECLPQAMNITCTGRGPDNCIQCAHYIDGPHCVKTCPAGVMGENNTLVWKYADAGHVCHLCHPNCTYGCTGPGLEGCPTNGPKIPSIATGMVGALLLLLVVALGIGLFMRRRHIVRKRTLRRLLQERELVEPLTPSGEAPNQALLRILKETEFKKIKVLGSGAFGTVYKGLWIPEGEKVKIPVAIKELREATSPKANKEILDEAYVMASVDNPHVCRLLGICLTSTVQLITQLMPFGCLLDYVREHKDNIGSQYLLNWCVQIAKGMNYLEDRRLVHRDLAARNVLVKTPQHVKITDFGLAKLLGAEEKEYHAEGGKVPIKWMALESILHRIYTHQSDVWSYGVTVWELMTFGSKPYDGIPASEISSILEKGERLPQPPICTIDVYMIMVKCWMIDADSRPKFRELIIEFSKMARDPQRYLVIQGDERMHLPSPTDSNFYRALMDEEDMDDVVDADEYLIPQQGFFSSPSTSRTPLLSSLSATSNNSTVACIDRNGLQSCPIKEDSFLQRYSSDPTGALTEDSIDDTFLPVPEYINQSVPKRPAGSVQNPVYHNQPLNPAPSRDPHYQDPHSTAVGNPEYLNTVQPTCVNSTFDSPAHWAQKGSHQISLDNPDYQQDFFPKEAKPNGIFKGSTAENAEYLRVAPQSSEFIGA
Compound,IC50 [1] [nM],IC50 [2] [nM],IC50 [3] [nM],IC50 [4] [nM]
"CC(C)c1nc(-c2cccc(NS(=O)(=O)c3c(F)cccc3F)c2F)c(-c2ccnc(Nc3cnc(N4CCOCC4)c(F)c3)n2)s1 [Example 30, 2,6-Difluoro-N-{2-fluoro-3-[5-(2-{[5-fluoro-6-(4-morpholinyl)-3-pyridinyl]amino}-4-pyrimidinyl)-2-(1-methylethyl)-1,3-thiazol-4-yl]phenyl}benzenesulfonamide]",> 1000,< 100,> 1000,< 100
"CC(C)c1nc(-c2cccc(NS(=O)(=O)c3ccccc3)c2)c(-c2ccnc(Nc3ccc(N4CCOCC4)nc3)n2)s1 [Example 8, N-{3-[2-(1-Methylethyl)-5-(2-{[6-(4-morpholinyl)-3-pyridinyl]amino}-4-pyrimidinyl)-1,3-thiazol-4-yl]phenyl}benzenesulfonamide hydrochloride]",100 to 1000,> 1000,> 1000,< 100
"CC(C)c1nc(-c2cccc(NS(=O)(=O)c3c(F)cccc3F)c2)c(-c2ccnc(Nc3ccc(N4CCN(CCS(C)(=O)=O)CC4)c(F)c3)n2)s1 [Example 16, 2,6-Difluoro-N-{3-[5-{2-[(3-fluoro-4-{4-[2-(methylsulfonyl)ethyl]-1-piperazinyl}phenyl)amino]-4-pyrimidinyl}-2-(1-methylethyl)-1,3-thiazol-4-yl]ohenyl}benzenesulfonamide hydrochloride]",100 to 1000,100 to 1000,> 1000,< 100

# Now from value to compound:
IC50 [1] [nM],IC50 [2] [nM],IC50 [3] [nM],IC50 [4] [nM],Compound
100 to 1000,100 to 1000,> 1000,< 100,CS(=O)(=O)CCN1CCN(c2ccc(Nc3nccc(-c4oc(N5CCCC5)nc4-c4cccc(NS(=O)(=O)c5c(F)cccc5F)c4F)n3)cc2F)CC1 [Example 167]
100 to 1000,100 to 1000,> 1000,100 to 1000,CCNc1nc(-c2ccc(F)c(NS(=O)(=O)c3c(F)cccc3F)c2)c(-c2ccnc(Nc3ccc(N4CCOCC4)nc3)n2)s1 [Example 166]
> 1000,> 1000,> 1000,< 100,COc1cc(N2CCN(CCS(C)(=O)=O)CC2)c(C)cc1Nc1nccc(-c2sc(C(C)(C)C)nc2-c2cccc(NS(=O)(=O)c3c(F)cccc3F)c2)n1 [Example 120]
< 100,> 1000,> 1000,100 to 1000,CCOc1ccc(Nc2nccc(-c3sc(C(C)C)nc3-c3ccc(F)c(NS(=O)(=O)c4c(F)cccc4F)c3)n2)cc1N1CCN(CCF)CC1 [Example 98]

# From patent US20110319392A1, “Thiazole Sulfonamide And Oxazole Sulfonamide Kinase Inhibitors” (priority 2009, published 2011)
